# From patent US20250248993A1, “CAMPTOTHECIN DERIVATIVES THAT BIND TO DDX5 PROTEIN AND PRODRUGS THEREOF” (priority 2022, published 2025)
# Like-named read-outs stand apart in the source and are kept apart here.
# Tests used:
# [1] = test system: survivin, cIAP2, Mcl-1, and XIAP; experiment: Western blot, expression inhibition of anti-apoptotic proteins in FaDu cell line; format: cell-based; details: FaDu, 0, 10, 100 nM, 24 hours
# [2] = dose more than 10 times higher than a clinically applicable dose; cited from earlier work
# various cancer lines = details: cited from earlier work
# DDX5 = DDX5 (Homo sapiens, UniProt P17844); experiment: Western blot, DDX5 degradation in FaDu and A549 cell lines; format: cell-based; parameters: endogenous in cells; host or cells: FaDu, A549; details: FaDu and A549, 0, 10, 100 nM
# in vivo = details: NOD SCID, mouse, 1 mg/kg, Plasma Concentration
# [3] = Lactone to carboxylate form conversion at pH 7.4; format: physicochemical; details: pH 7.4, 37° C.
# Method: Subsequently, it was centrifuged under conditions of 4° C., 2 minutes, and 13000 RCF, and a supernatant was used as a sample.
# The column used was a Cortecs C18 2.7 μm, 4.6×50 mm column, and analysis was conducted under the following conditions: 1) 20 min: 5% B, 2) sample injection, 3) 2 min: 5% B, 4) 10 min: 5% B→50% B, and 5) 1 min: 50% B.
# To measure changes over time, a sample chamber was maintained at 37° C. and a sample was set to be injected at each measurement time. The measurement time was set to 0, 20, 40, 60, 90, 120, 180, 240, 300, 360, 480, 600, and 720 minutes.
# The content of each of lactone and carboxylate was calculated from the peak area thereof. Since the absorption coefficients of lactone and carboxylate are different, the lactone area was obtained by multiplying the carboxylate area by the equation below.
# [4] = mouse, in vivo
# FaDu cell line = experiment: Cell viability assay (CellTiter-Glo), FaDu cell line; format: cell-based; details: FaDu not expressing ABCG2, 3 days
# Method: After 24 hours, the cells were treated with 100 μL of each drug at nine different concentrations (⅕ serial dilutions from 1000 nM). […] Here, a control (drug concentration: 0) that was not treated with a drug was also prepared. The cells were cultured (37° C., 5% CO2) for 3 or 6 days. 100 μL of the CellTiter-Glo reagent (using the CellTiter-Glo® Luminescent Cell Viability Assay kit (Promega, G7571)) was added to each well and pipetted. After incubating at room temperature (RT) for 10 minutes, luminescence was measured.
# Sequence of DDX5 (P17844 whole entry): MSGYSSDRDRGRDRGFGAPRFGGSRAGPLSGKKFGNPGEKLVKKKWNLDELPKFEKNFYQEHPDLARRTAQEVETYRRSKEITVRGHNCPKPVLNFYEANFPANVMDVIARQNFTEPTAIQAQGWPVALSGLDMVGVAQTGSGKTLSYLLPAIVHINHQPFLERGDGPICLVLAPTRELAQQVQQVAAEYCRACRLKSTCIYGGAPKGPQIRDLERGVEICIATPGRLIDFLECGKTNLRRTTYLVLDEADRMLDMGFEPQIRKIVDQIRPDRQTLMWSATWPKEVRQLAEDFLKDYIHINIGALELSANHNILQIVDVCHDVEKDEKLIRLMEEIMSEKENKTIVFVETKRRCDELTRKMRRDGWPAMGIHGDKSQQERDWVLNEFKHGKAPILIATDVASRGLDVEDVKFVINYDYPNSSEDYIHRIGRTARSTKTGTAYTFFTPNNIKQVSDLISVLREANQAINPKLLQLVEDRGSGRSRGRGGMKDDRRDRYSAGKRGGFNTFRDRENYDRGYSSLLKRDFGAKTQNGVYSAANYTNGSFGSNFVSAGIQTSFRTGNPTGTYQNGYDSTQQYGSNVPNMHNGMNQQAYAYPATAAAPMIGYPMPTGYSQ
compound,measurement,setting,value
"CC[C@@]1(O)C(=O)OCc2c1cc1n(c2=O)Cc2c-1nc1cc3c(c4c1c2[C@@H](N)CC4)OCO3 (single isomer, unassigned) [PBX-7011]","expression of anti-apoptotic proteins (survivin, cIAP2, Mcl-1, XIAP)",[1],decreased as the concentration increased
CC[C@@]1(O)C(=O)OCc2c1cc1n(c2=O)Cc2c-1nc1ccccc1c2CCNC(C)C [CKD-602],adverse drug reactions,[2],"no adverse drug reactions, except an increase in gastric juice secretion"
CC[C@@]1(O)C(=O)OCc2c1cc1n(c2=O)Cc2c-1nc1cc(F)c(C)c3c1c2[C@@H](NC(=O)CO)CC3 [Dxd],cytotoxicity / activity relative to SN-38,various cancer lines,approximately 10 times
"CC[C@@]1(O)C(=O)OCc2c1cc1n(c2=O)Cc2c-1nc1cc(F)c(C)c3c1c2[C@@H](N)CC3 [Exatecan, reference compound]","expression of anti-apoptotic proteins (survivin, cIAP2, Mcl-1, XIAP)",[1],strongly inhibit the expression of an anti-apoptotic protein
"CC[C@@]1(O)C(=O)OCc2c1cc1n(c2=O)Cc2cc3cc4c(cc3nc2-1)OCO4 [FL118, reference compound]","expression of anti-apoptotic proteins (survivin, cIAP2, Mcl-1, XIAP)",[1],strongly suppresses the expression of an anti-apoptotic protein
same,IC50,various cancer lines; majority of 140 cell lines originating from various cancer types,< 100 nM
same,DDX5 degradation / inhibition,DDX5,superior to other substances
CC[C@@]1(O)C(=O)OCc2c1cc1n(c2=O)Cc2c-1nc1cc3c(c4c1c2[C@@H](NC(=O)CO)CC4)OCO3 [PBX-7014],"expression of anti-apoptotic proteins (survivin, cIAP2, Mcl-1, XIAP)",[1],decreased as the concentration increased
CC[C@@]1(O)C(=O)OCc2c1cc1n(c2=O)Cc2c-1nc1cc3c(c4c1c2[C@@H](NC(=O)[C@@H](C)O)CC4)OCO3 [PBX-7016],concentration at 0.167 h,"in vivo; ip, Mean",164 ng/mL
same,concentration at 1 h,"in vivo; ip, Mean",16.1 ng/mL
same,concentration at 0.167 h,"in vivo; ip, individual mice",158 ng/mL
same,concentration at 0.167 h,"in vivo; iv, Mean",59.3 ng/mL
same,concentration at 1 h,"in vivo; iv, Mean",6.9 ng/mL
same,concentration at 0.167 h,"in vivo; iv, individual mice",76.2 ng/mL
same,"expression of anti-apoptotic proteins (survivin, cIAP2, Mcl-1, XIAP)",[1],decreased as the concentration increased
same,conversion from lactone form to carboxylate form,[3],more rapidly and at a higher rate than other reference compounds
same,clearance from the blood,[4],cleared from the blood very quickly
same,DDX5 degradation / inhibition,DDX5,inhibited DDX5 in a concentration-dependent manner
CC[C@@]1(O)C(=O)OCc2c1cc1n(c2=O)Cc2c-1nc1cc3c(c4c1c2[C@@H](NC(=O)[C@@H](O)C1CC1)CC4)OCO3 [PBX-7024],apoptotic efficacy (cell viability),FaDu cell line,potent apoptotic efficacy
CCc1c2c(nc3ccc(O)cc13)-c1cc3c(c(=O)n1C2)COC(=O)[C@]3(O)CC [SN-38],IC50,various cancer lines; several cell lines,nanomolar range
